Converted amounts (≈) assume the structure as drawn.
Columns and labels:
[1] = Kinetic aqueous solubility of the compound in PBS incubated for 2 hrs under mild shaking at pH 7.4 by UV- vis spectrophotometric analysis; type: physicochemical; conditions: read-out: Kinetic_solubility
[2] = 1-Octanol/PBS buffer distribution coefficient, log D of the compound at 1 uM measured after 24 hrs at pH 7.4 by shake flask based HPLC-ES-MS/MS analysis; type: physicochemical
[3] = Chromatographic hydrophobicity index of the compound in ammonium acetate buffer at pH 7.4 by RP-HPLC analysis; type: physicochemical
[4] = Microsomal stability in mouse liver microsomes assessed as half life at 0.5 uM incubated upto 30 mins in presence of NADPH by LC/MS/MS analysis; type: ADME, Microsome
[5] = Intrinsic clearance in mouse liver microsomes at 0.5 uM incubated upto 30 mins in presence of NADPH measured per mg protein by LC/MS/MS analysis; type: ADME, Microsome; conditions: read-out: CLH
Homo sapiens = species: Homo sapiens; assay: Selectivity for human recombinant MAO-B expressed in supersomes over human recombinant MAO-A expressed in supersomes
[6] = biological target: T1, Amine oxidase [flavin-containing] B (Homo sapiens, UniProt P27338)
T1 sequence (P27338 whole entry): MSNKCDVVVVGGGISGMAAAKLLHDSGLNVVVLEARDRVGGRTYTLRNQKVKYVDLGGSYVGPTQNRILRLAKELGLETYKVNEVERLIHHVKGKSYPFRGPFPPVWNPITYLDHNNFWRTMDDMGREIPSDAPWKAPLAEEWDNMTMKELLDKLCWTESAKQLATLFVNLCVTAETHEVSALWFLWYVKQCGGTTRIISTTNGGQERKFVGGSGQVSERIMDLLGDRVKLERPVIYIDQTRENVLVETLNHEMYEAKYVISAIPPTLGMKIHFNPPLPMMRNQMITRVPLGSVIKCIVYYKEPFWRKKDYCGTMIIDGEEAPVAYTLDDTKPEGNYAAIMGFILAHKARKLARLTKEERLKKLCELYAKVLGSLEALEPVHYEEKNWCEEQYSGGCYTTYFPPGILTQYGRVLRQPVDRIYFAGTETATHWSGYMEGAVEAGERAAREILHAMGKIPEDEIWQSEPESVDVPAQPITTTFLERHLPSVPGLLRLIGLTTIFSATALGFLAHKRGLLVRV
Description: Inhibition of human recombinant MAO-B expressed in supersomes assessed as inhibition of 4-hydroxyquinoline formation using kynuramine as substrate by spectrofluorimetric analysis

Acetylcholinesterase = Acetylcholinesterase (Homo sapiens, UniProt P22303)
Chain of Acetylcholinesterase (P22303 whole entry): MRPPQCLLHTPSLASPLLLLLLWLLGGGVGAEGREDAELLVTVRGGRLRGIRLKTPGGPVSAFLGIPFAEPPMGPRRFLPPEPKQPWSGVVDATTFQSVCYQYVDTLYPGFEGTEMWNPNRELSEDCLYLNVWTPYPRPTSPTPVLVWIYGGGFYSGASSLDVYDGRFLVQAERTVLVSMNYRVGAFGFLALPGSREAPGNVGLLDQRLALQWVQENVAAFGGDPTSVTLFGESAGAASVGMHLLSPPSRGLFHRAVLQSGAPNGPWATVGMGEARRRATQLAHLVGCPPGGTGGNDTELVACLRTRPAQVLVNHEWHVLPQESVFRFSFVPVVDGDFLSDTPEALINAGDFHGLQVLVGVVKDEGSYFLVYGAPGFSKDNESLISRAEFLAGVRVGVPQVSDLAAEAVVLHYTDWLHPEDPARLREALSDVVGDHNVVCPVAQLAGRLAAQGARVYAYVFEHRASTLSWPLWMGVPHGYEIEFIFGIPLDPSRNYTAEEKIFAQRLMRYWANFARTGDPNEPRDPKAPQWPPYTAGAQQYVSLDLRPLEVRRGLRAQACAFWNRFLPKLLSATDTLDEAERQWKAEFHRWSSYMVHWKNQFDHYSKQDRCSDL
Description: Inhibition of human recombinant AChE by Ellman's spectrophotometric assay

Cholinesterase = Cholinesterase (Equus caballus, UniProt P81908)
Chain of Cholinesterase (P81908 whole entry): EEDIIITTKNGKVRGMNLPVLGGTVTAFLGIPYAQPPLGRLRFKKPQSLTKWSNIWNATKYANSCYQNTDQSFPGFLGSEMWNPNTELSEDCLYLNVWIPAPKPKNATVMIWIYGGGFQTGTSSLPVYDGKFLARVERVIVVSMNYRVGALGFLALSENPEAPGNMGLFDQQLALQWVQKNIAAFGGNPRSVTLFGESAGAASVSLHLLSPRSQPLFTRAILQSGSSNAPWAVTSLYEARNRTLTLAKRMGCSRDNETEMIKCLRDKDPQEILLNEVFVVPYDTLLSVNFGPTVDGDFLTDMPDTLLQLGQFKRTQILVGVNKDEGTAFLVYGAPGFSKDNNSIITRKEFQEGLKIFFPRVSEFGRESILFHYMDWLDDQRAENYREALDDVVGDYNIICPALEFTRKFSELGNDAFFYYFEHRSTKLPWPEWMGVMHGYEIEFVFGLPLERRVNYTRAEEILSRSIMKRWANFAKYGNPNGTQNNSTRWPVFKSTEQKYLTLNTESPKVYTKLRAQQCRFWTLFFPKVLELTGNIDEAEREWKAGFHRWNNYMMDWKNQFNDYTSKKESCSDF
Description: Inhibition of horse serum BChE by Ellman's spectrophotometric assay

MAO-A = biological target: T2, MAO-A (Homo sapiens, UniProt P21397); assay: in vitro; conditions: recombinant MAO-A expressed in supersomes, probe kynuramine
T2 sequence (P21397 whole entry): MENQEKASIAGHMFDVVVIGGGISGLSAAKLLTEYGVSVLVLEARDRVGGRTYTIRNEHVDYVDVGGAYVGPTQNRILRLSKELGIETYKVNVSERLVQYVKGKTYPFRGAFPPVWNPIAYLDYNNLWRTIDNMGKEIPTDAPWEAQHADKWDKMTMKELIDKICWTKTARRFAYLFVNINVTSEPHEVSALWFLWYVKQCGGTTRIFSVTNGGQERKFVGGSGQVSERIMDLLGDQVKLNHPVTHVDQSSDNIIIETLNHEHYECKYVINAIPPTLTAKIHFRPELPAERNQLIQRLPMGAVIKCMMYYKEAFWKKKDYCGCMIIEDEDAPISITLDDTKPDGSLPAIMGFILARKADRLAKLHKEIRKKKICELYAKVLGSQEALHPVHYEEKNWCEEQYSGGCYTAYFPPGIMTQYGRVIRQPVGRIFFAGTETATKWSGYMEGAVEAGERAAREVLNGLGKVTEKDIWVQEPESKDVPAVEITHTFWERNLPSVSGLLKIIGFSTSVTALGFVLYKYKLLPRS

[7] = Effective permeability of the compound in PBS buffer at pH 7.4 by PAMPA-BBB assay; type: ADME; conditions: read-out: Peff
[8] = Apparent permeability across basolateral to apical side in human Caco-2 cells at 10 uM incubated for 60 mins by HPLC-MS/MS method; type: ADME, cell-based
[9] = Apparent permeability across apical to basolateral side in human Caco-2 cells at 10 uM incubated for 60 mins by HPLC-MS/MS method; type: ADME, cell-based
[10] = Efflux ratio of apparent permeability across basolateral to apical side over apical to basolateral side in human Caco-2 cells; type: ADME, cell-based
[11] = Microsomal stability in human liver microsomes assessed as half life at 0.5 uM incubated upto 60 mins in presence of NADPH by LC/MS/MS analysis; type: ADME, Microsome
[12] = Intrinsic clearance in human liver microsomes at 0.5 uM incubated upto 60 mins in presence of NADPH measured per mg protein by LC/MS/MS analysis; type: ADME, Microsome; conditions: read-out: CLH
Cytochrome P450 3A4 = Cytochrome P450 3A4 (Homo sapiens, UniProt P08684); assay: Inhibition of human recombinant CYP3A4 expressed in baculosomes by fluorescent homogenous assay; type: ADME
Chain of Cytochrome P450 3A4 (P08684 whole entry): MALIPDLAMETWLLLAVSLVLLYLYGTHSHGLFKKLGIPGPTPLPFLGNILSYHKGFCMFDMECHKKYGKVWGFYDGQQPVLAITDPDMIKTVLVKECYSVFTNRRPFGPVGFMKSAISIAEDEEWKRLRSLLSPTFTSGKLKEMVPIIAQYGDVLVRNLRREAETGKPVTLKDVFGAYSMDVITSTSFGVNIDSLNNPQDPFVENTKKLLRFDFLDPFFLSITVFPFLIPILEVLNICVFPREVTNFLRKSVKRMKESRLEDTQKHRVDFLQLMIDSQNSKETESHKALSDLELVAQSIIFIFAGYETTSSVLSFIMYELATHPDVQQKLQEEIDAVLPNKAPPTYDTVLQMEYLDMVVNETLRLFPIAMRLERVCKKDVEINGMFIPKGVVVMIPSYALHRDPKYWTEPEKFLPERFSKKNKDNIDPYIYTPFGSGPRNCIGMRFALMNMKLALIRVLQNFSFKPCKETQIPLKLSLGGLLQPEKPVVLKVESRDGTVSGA

[13] = biological target: Cholinesterase (Equus caballus) (UniProt P81908); assay: Inhibition of horse serum BChE at 10 uM by Ellman's spectrophotometric assay; type: cell-free
Chain of Cholinesterase (Equus caballus) (P81908 whole entry): as the sequence (P81908 whole entry) above

[14] = biological target: T1, Amine oxidase [flavin-containing] B; assay: Inhibition of human recombinant MAO-B expressed in supersomes assessed as inhibition of 4-hydroxyquinoline formation using kynuramine as substrate by spectrophotometric method
[15] = biological target: T3, Amine oxidase [flavin-containing] A (Homo sapiens, UniProt P21397)
T3 sequence (P21397 whole entry): T2 sequence (P21397 whole entry)
Description: Inhibition of human recombinant MAO-A expressed in supersomes assessed as inhibition of 4-hydroxyquinoline formation using kynuramine as substrate by spectrofluorimetric analysis

SH-SY5Y = assay: Cytotoxicity against human SH-SY5Y cells assessed as reduction in cell viability at 1 to 100 uM incubated for 4 hrs by CellTiter-Glo luminescence assay; type: toxicity, cell-based; conditions: dose 1-100 µM
HepG2 = assay: Cytotoxicity against human HepG2 cells assessed as reduction in cell viability at 1 to 100 uM incubated for 4 hrs by CellTiter-Glo luminescence assay; type: toxicity, cell-based; conditions: hepg2, 4 h, dose 1-100 µM

Row | Structure (SMILES) | solubility kinetic at 2 h [1] | logD at 24 h, 1 µM [2] | CHI [3] | half-life at 0.5 µM [4] | microsomal CLint at 0.5 µM [5] | IC50 [6] | IC50 (Acetylcholinesterase) | IC50 (Cholinesterase) | Papp [7] | inhibition [13] | IC50 [15] | further results
1 | CN(Cc1ccccc1)Cc1ccc(COc2ccc3c(C(F)F)cc(=O)oc3c2)cc1 | 0.4 µM (≈ 0.174 µg/mL) | 4.8 | > 100 | 9.8 min | 142 µL/min/mg | 130 nM | 560 nM | 430 nM |  |  |  | Selectivity Index (Homo sapiens): > 73; inhibition at 10 µM (MAO-A): 17%
2 | Cc1c(C)c2ccc(OCC3CCN(CCCC(F)F)CC3)cc2oc1=O | 448 µM (≈ 170 µg/mL) | 2.34 | 73.4 | 11.9 min | 116 µL/min/mg | 530 nM | 1200 nM |  | 10.8 ×10⁻⁶ cm/s | 8% |  | Papp B→A at 1 h, 10 µM [8]: 16 ×10⁻⁶ cm/s; Papp A→B at 1 h, 10 µM [9]: 17 ×10⁻⁶ cm/s; efflux ratio [10]: 1; half-life at 0.5 µM [11]: 98.9 min; microsomal CLint at 0.5 µM [12]: 14.1 µL/min/mg; IC50 (Cytochrome P450 3A4): 800 nM; inhibition at 10 µM (MAO-A): 40%
3 | Cc1c(C)c2ccc(OCCCN(Cc3cccc(F)c3)C(C)C)cc2oc1=O | 13 µM (≈ 5.17 µg/mL) |  | > 100 |  |  | 350 nM | 910 nM |  |  | 22% | 8.1 µM | inhibition (INH) [14]: Active
4 | CN(Cc1ccccc1)Cc1ccc(COc2ccc3c(CO)cc(=O)oc3c2)cc1 |  | 3.81 | 99.3 | 31.7 min | 43.9 µL/min/mg |  |  |  |  |  |  | 
5 | CN(CCCO)Cc1ccc(COc2ccc3c(CO)cc(=O)oc3c2)cc1 | > 500 µM |  | 35.6 |  |  | 420 nM | 2200 nM |  | 3.1 ×10⁻⁶ cm/s | 27% |  | inhibition at 10 µM (MAO-A): 13%
6 | Cc1c(C)c2ccc(OCC3CCCN(CCCO)C3)cc2oc1=O (racemic) | > 500 µM | 1.15 | 48.8 | 92.4 min | 15.1 µL/min/mg |  | 1100 nM |  | 7.2 ×10⁻⁶ cm/s |  |  | Activity (SH-SY5Y): Non-Toxic; Activity (HepG2): Non-Toxic
7 | Cc1c(C)c2ccc(OCc3ccc(CN(C)CCCC(F)F)cc3)cc2oc1=O | 13 µM (≈ 5.4 µg/mL) | 3.78 | > 100 |  |  | 160 nM | 1500 nM | 4100 nM |  |  |  | inhibition at 10 µM (MAO-A): 45%
8 | Cc1c(C)c2ccc(OCC3CCN(Cc4cccc(C(F)(F)F)c4)CC3)cc2oc1=O | 0.9 µM (≈ 0.401 µg/mL) | 5.05 | > 100 | 9.5 min | 146 µL/min/mg | 130 nM | 470 nM |  |  | 35% | 1.4 µM | 
9 | Cc1c(C)c2ccc(OCC3CCCN(CCCC(F)F)C3)cc2oc1=O (racemic) | 349 µM (≈ 132 µg/mL) | 2.67 | 83.4 | 17.8 min | 78.1 µL/min/mg | 260 nM | 480 nM |  | 13.3 ×10⁻⁶ cm/s | 22% | 11 µM | IC50 (Cytochrome P450 3A4): > 10000 nM
10 | Cc1c(C)c2ccc(OCC3CCCN(Cc4ccccc4)C3)cc2oc1=O (racemic) | 33 µM (≈ 12.5 µg/mL) | 3.65 | > 100 | 5.3 min | 265 µL/min/mg |  |  |  |  |  |  | 
11 | CCN(CCCOc1ccc2c(C)c(C)c(=O)oc2c1)Cc1cccc(F)c1 | 18 µM (≈ 6.9 µg/mL) |  | > 100 | 5.3 min | 260 µL/min/mg | 73 nM | 1200 nM | 4300 nM |  |  | 7.8 µM | 
12 | Cc1c(C)c2ccc(OCC3CCN(Cc4ccccc4)CC3)cc2oc1=O | 57 µM (≈ 21.5 µg/mL) | 3.4 | 99.7 | 6.7 min | 206 µL/min/mg |  | 380 nM |  |  |  |  | Papp B→A at 1 h, 10 µM [8]: 12 ×10⁻⁶ cm/s; Papp A→B at 1 h, 10 µM [9]: 7 ×10⁻⁶ cm/s; efflux ratio [10]: 1.6
13 | Cc1c(C)c2ccc(OCc3cccc(CN(C)CCCC(F)F)c3)cc2oc1=O | 13 µM (≈ 5.4 µg/mL) | 3.65 | > 100 | 4.8 min | 289 µL/min/mg | 560 nM | 1700 nM | 1600 nM |  |  | 4.2 µM | IC50 (Cytochrome P450 3A4): 600 nM
14 | Cc1c(C)c2ccc(OCC3CCN(Cc4cccc(F)c4)CC3)cc2oc1=O | 11 µM (≈ 4.35 µg/mL) | 3.43 | > 100 | 6.2 min | 225 µL/min/mg | 140 nM | 460 nM | 2900 nM |  |  | 2.5 µM | inhibition (INH) [14]: Active
15 | Cc1c(C)c2ccc(OCC3CCCN(Cc4cccc(F)c4)C3)cc2oc1=O (racemic) | 20 µM (≈ 7.91 µg/mL) | 4.38 | > 100 | 6.6 min | 210 µL/min/mg | 12 nM | 1200 nM | 2000 nM | 10 ×10⁻⁶ cm/s |  | 2 µM | 
